Test results as given in patent US20110182871A1, “NOVEL MICROORGANISM AND PLANT DISEASE CONTROL AGENT USING THE MICROORAGNISM” (UNIVERSITY OF YAMANASHI, priority 2008, published 2011).

How the values were obtained:
[1] = system: Bacillus subtilis strain KS1; test: Drug resistance test: growth of strain KS1 on YBS medium containing a chemical pesticide; type: cell-based; conditions: 37° C., 2 days
Method: (§1) In this example, a test for resistance of Bacillus subtilis strain KS1 to chemical pesticides was performed. First, the YBS medium (one containing yeast extract and meat extract in agar) containing the chemical pesticide of interest was prepared in a petri dish. The concentration (ppm) of the chemical pesticide at this time was the same as a general application concentration. Next, Bacillus subtilis strain KS1 was smeared on the surface of the above-mentioned medium containing the chemical pesticide and incubated at 37° C. for 2 days. As a control area, a test for resistance of Bacillus subtilis isolated from a Botokiller water dispersible powder to chemical pesticides was performed in parallel. In this case, the suspension of the Botokiller water dispersible powder was spread on the YBS medium and the bacteria that appeared after overnight incubation at 37° C. were considered as the bacteria constituting a Botokiller water dispersible powder. In the resistance test, the bacteria constituting a Botokiller water dispersible powder were smeared on the surface of the medium containing a chemical pesticide and incubated at 37° C. for 2 days, as is the case with the above-mentioned Bacillus subtilis strain KS1. […]

[2] = system: B. subtilis used in a Botokiller water dispersible powder; test: Drug resistance test: growth of the bacteria constituting a Botokiller water dispersible powder on YBS medium containing a chemical pesticide; type: cell-based, Bacillus subtilis; conditions: 37° C., 2 days
Method: as §1

S=C([S-])NCCNC(=S)[S-].[Mn+2] [Maneb]
Resistance of Bacillus subtilis strain KS1 to the chemical pesticide (in words) [1]: showed resistance | Resistance of the bacteria constituting a Botokiller water dispersible powder to the chemical pesticide (in words) [2]: showed no resistance
